We go through 15 molecules from ChEMBL document CHEMBL1137759, “Design, parallel synthesis, and crystal structures of biphenyl antithrombotics as selective inhibitors of tissue factor FVIIa complex. Part 1: Exploration of S2 pocket pharmacophores” (Bioorg Med Chem, 2009).

By IC50 is commonly meant the midpoint of a concentration-inhibition curve. A lower IC50 goes with greater potency.

In one test the target is Plasminogen (Homo sapiens, UniProt P00747). Kind of test: Inhibition of plasmin.
The target in a further test is Prothrombin (Homo sapiens, UniProt P00734). As to the kind of experiment: Inhibition of thrombin.
Test [1] in a line: Selectivity ratio of IC50 for tissue factor/factor 7a to IC50 for trypsin.
The target in another test is Coagulation factor X (Homo sapiens, UniProt P00742).
The target in test [2] is Coagulation factor VII/tissue factor (Homo sapiens, UniProt P08709). Kind of test: Inhibition of tissue factor/factor 7a. The format is protein-complex assay.
Chain of Coagulation factor VII/tissue factor (P08709 61-212 limits assumed): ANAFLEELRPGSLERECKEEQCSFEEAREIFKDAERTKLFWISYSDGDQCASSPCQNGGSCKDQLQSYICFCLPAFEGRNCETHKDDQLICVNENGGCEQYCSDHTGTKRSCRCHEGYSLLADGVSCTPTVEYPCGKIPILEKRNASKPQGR
Chain of Coagulation factor VII/tissue factor (P08709 213-466 limits assumed): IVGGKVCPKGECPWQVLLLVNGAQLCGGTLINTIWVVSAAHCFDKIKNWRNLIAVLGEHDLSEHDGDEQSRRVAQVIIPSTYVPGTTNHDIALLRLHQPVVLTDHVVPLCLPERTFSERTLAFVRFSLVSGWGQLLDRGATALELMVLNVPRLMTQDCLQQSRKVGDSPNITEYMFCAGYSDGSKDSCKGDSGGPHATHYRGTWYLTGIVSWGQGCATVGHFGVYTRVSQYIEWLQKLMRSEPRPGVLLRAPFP
Chain of Coagulation factor VII/tissue factor (P13726 33-295 partner limits assumed): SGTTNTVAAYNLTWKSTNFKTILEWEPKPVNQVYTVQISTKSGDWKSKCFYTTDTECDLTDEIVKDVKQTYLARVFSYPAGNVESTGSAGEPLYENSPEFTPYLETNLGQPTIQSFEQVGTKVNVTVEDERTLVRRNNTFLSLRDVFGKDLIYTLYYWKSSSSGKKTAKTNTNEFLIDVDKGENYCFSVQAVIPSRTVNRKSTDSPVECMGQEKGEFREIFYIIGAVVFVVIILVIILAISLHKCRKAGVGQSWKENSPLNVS

Chain of Coagulation factor X (P00742 41-179 limits assumed): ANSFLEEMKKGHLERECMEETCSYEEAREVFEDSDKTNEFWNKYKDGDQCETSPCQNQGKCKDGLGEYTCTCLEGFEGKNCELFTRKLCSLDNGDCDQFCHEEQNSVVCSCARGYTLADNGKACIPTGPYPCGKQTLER
Chain of Coagulation factor X (P00742 235-488 limits assumed): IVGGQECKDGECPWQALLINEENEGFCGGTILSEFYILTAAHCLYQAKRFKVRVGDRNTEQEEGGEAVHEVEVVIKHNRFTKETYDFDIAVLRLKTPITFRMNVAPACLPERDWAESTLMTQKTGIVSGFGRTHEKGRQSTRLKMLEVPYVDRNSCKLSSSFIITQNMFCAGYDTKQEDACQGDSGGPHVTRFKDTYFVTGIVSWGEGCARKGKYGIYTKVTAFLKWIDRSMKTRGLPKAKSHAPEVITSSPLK
Chain of Plasminogen (P00747 97-580 limits assumed): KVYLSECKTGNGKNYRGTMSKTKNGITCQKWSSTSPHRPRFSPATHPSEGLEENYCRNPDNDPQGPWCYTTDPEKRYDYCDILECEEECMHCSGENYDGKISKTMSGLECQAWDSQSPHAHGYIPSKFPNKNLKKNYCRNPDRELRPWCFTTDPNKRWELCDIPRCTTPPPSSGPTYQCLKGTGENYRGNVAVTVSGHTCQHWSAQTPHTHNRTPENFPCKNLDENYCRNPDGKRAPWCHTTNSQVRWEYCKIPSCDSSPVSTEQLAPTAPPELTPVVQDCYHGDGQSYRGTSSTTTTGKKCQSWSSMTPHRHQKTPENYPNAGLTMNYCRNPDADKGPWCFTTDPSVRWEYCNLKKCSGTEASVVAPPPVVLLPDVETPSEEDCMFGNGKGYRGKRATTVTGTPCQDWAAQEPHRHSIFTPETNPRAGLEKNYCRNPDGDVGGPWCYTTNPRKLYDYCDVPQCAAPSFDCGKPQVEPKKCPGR
Chain of Plasminogen (P00747 581-810 limits assumed): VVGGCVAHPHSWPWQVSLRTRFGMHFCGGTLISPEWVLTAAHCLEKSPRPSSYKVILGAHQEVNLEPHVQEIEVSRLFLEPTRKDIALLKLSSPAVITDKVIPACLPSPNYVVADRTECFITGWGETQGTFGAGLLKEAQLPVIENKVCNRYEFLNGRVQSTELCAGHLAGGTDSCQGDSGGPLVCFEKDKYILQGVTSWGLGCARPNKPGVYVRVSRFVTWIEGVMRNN

In the case of `C=CCc1ccc(-c2ccc(C(=O)NCC(C)C)cc2C(=O)O)c(C(=O)Nc2ccc(C(=N)N)cc2)c1`, the concentration for half-maximal inhibition (IC50) amounted to 2.47 µM on Plasminogen, 19.2 µM at Prothrombin, 1.9 µM against Coagulation factor X and 0.042 µM in test [2]. For the same molecule, the Ratio IC50 in test [1] came to 57.6.
`CC(C)CNC(=O)c1ccc(-c2ccc(-c3ccsc3CO)cc2C(=O)Nc2ccc(C(=N)N)cc2)c(C(=O)O)c1`: the IC50 was found to be 0.408 µM against Plasminogen, 50 µM at Prothrombin, 0.45 µM at Coagulation factor X and 0.036 µM in test [2]. Also, the Ratio IC50 in test [1] was found to be 84.4.
In the case of `CC(C)CNC(=O)c1ccc(-c2ccc(-c3ccsc3)cc2C(=O)Nc2ccc(C(=N)N)cc2)c(C(=O)O)c1`, the IC50 against Plasminogen is 0.035 µM; against Prothrombin, 15 µM; at Coagulation factor X, 0.04 µM; in test [2] it was 0.01 µM. For the same molecule, the Ratio IC50 in test [1] was found to be 37.7.
On to `CC(C)=CCc1ccc(-c2ccc(C(=O)NCC(C)C)cc2C(=O)O)c(C(=O)Nc2ccc(C(=N)N)cc2)c1`, for which the IC50 against Plasminogen turned out to be 0.308 µM; against Prothrombin it was 13 µM; against Coagulation factor X, 27 µM; in test [2] it was 0.045 µM. The Ratio IC50 in test [1] is 21.1.
With `CC(C)CNC(=O)c1ccc(-c2ccc(-c3nccs3)cc2C(=O)Nc2ccc(C(=N)N)cc2)c(C(=O)O)c1`, the concentration for half-maximal inhibition (IC50) at Plasminogen was 0.494 µM; at Prothrombin it was 70.4 µM; against Coagulation factor X it was 0.23 µM; in test [2] it was 0.104 µM. Besides, the Ratio IC50 in test [1] amounted to 14.1.
Take `CC(C)CNC(=O)c1ccc(-c2ccc(Cc3cccs3)cc2C(=O)Nc2ccc(C(=N)N)cc2)c(C(=O)O)c1`: the IC50 at Plasminogen amounted to 0.913 µM; against Prothrombin, 42.1 µM; at Coagulation factor X, 8.15 µM; in test [2], 0.011 µM. For the same molecule, the Ratio IC50 in test [1] is 127.
In the case of `CC(C)CNC(=O)c1ccc(-c2ccc(-c3cscc3CO)cc2C(=O)Nc2ccc(C(=N)N)cc2)c(C(=O)O)c1`, the IC50 at Plasminogen was 0.06 µM; at Prothrombin, 63.1 µM; on Coagulation factor X, 0.13 µM; in test [2], 0.009 µM. Besides, in test [1], the Ratio IC50 came to 56.7.
On the same counts, the results for `COc1ccc(-c2ccc(C(=O)NCC(C)C)cc2C(=O)O)c(C(=O)Nc2ccc(C(=N)N)cc2)c1` are 14.4 µM, 14.9 µM, 6.63 µM, 0.03 µM and 25.3.
Turning to `C=C(C)c1ccc(-c2ccc(C(=O)NCC(C)C)cc2C(=O)O)c(C(=O)Nc2ccc(C(=N)N)cc2)c1`, the IC50 against Plasminogen was 0.07 µM; against Prothrombin, 17.9 µM; against Coagulation factor X, 1.17 µM; in test [2], 0.013 µM. In test [1], the Ratio IC50 stood at 40.8.
For the molecule `CC(C)CNC(=O)c1ccc(-c2ccc(-c3occc3CO)cc2C(=O)Nc2ccc(C(=N)N)cc2)c(C(=O)O)c1`, the IC50 is 1.07 µM at Plasminogen, 50 µM at Prothrombin, 0.15 µM at Coagulation factor X and 0.024 µM in test [2]. The Ratio IC50 in test [1] is 32.1.
For the molecule `CC(C)CNC(=O)c1ccc(-c2ccc(Cc3ccccc3)cc2C(=O)Nc2ccc(C(=N)N)cc2)c(C(=O)O)c1`, the IC50 came out at 0.656 µM against Plasminogen, 8.51 µM at Prothrombin, 1.75 µM on Coagulation factor X and 0.021 µM in test [2]. Moreover, the Ratio IC50 in test [1] is 26.9.
With `CC#Cc1ccc(-c2ccc(C(=O)NCC(C)C)cc2C(=O)O)c(C(=O)Nc2ccc(C(=N)N)cc2)c1`, the IC50 against Plasminogen is 0.127 µM; against Prothrombin, 50 µM; against Coagulation factor X, 5.22 µM; in test [2], 0.034 µM. In addition, in test [1], the Ratio IC50 came out at 48.8.
As for `C/C=C\Cc1ccc(-c2ccc(C(=O)NCC(C)C)cc2C(=O)O)c(C(=O)Nc2ccc(C(=N)N)cc2)c1`, the IC50 on Plasminogen worked out at 0.684 µM; on Prothrombin, 4.88 µM; on Coagulation factor X, 7.6 µM; in test [2], 0.011 µM. For the same molecule, the Ratio IC50 in test [1] was found to be 119.
On to `C#Cc1ccc(-c2ccc(C(=O)NCC(C)C)cc2C(=O)O)c(C(=O)Nc2ccc(C(=N)N)cc2)c1`, for which the IC50 was found to be 1 µM against Plasminogen, 50.2 µM against Prothrombin, 8.14 µM against Coagulation factor X and 0.025 µM in test [2]. For the same molecule, the Ratio IC50 in test [1] worked out at 115.
For `CC(C)CNC(=O)c1ccc(-c2ccc(-c3ccco3)cc2C(=O)Nc2ccc(C(=N)N)cc2)c(C(=O)O)c1`, the IC50 was 0.163 µM at Plasminogen, 14.7 µM against Prothrombin, 1.3 µM against Coagulation factor X and 0.009 µM in test [2]. For the same molecule, the Ratio IC50 in test [1] was 41.4.
